{"source": "paper doi:10.1101/815415v1", "about": "(biorxiv, 2019)", "target": "xylanase from Bacillus circulans (BCX) (Niallia circulans, UniProt P09850)", "test": "NMR titration, 1H-15N HSQC 2D lineshape fit", "type": "binding", "conditions": "25 mM sodium acetate, pH 5.8, 6% D2O, 20 °C; active site -1/-2 subsites"}
{"smiles": "OC1OC[C@@H](O[C@@H]2OC[C@@H](O)[C@H](O)[C@H]2O)[C@H](O)[C@H]1O", "note": "(stereo partly shown) [X2, xylobiose]", "values": [{"measurement": "Kd", "result": 10, "unit": "mM"}]}
